Data as given in paper PMC10006169, “A phase I trial of LXS196, a protein kinase C (PKC) inhibitor, for metastatic uveal melanoma” (British Journal of Cancer, 2023).
Where “and” joins values, the source holds several entries; their conditions need not be identical. Identical values can stand only once.

Columns and labels:
[1] = system: metastatic uveal melanoma (MUM); assay: Tumour response (RECIST v1.1) and progression-free survival; assay type: in vivo, human
Experimental: Tumour response was assessed locally by computed tomography (CT) and/or magnetic resonance imaging (MRI) of the chest, abdomen and pelvis, according to Response Evaluation Criteria in Solid Tumours (RECIST) v1.1 at baseline, on C3D1 and every two cycles thereafter until cycle 11. After 11 cycles of treatment, response was evaluated every three cycles until the end of treatment. Fresh metastatic tumour biopsies were collected at baseline (prior to first dose) and on treatment at C1D15 to evaluate the modulation of PKC substrate proteins in tumours following exposure to LXS196 and to perform exploratory transcriptome and targeted DNA sequencing. Whole blood samples (peripheral blood mononuclear cells; PBMCs) were collected pre-dose on C1D1 and D15, and at various time points post-dose on C1D1, D2, D3, D15 and D16 to evaluate the modulation of PKC substrate proteins in a surrogate tissue. Owing to the exploratory nature of this phase I study, formal statistical tests were not planned to be performed. Data are presented using descriptive statistics and visualisations. Continuous variables are described with the mean and range. Categorical variables are described using counts and percentages. PFS is described using the Kaplan–Meier (KM) method.

[2] = system: skin-derived melanoma cell lines driven by mutant B-Raf or N-Ras; parameters: method as in ref 18 = [18]; 18. Visser M, Papillon J, Fan J, Luzzio M, Michael W, Wang R, et al. NVP-LXS196, a novel PKC inhibitor for the treatment of uveal melanoma. Paper presented at: Abstracts of papers of the American Chem; conditions: cited from earlier work

Which results are given for `CC1(N)CCN(c2cccnc2NC(=O)c2nc(-c3ncccc3C(F)(F)F)cnc2N)CC1` [LXS196]?
BOR: complete response (CR) ([1]; 300 mg BID (RDE) n=18): 0 n (%); BOR: partial response (PR) ([1]; 300 mg BID (RDE) n=18): 2 (11.1%) n (%) and 2 (11.1) n (%); BOR: progressive disease (PD) ([1]; 300 mg BID (RDE) n=18): 3 (16.7) n (%); BOR: unknown ([1]; 300 mg BID (RDE) n=18): 1 (5.6) n (%); Kaplan–Meier PFS rate (95% CI) at 4 months ([1]; 300 mg BID (RDE) n=18): 44.4 (21.6–65.1) %; Kaplan–Meier PFS rate (95% CI) at 6 months ([1]; 300 mg BID (RDE) n=18): 27.8 (10.1–48.9) %; Kaplan–Meier PFS rate (95% CI) at 12 months ([1]; 300 mg BID (RDE) n=18): 22.2 (6.9–42.9) %; Number of PFS events ([1]; 300 mg BID (RDE) n=18): 18 (100) n (%); PFS 25th percentile (95% CI) ([1]; 300 mg BID (RDE) n=18): 2.1 (0.8–3.6) months; PFS 50th percentile, median PFS (95% CI) ([1]; 300 mg BID (RDE) n=18): 3.7 (2.1–5.4) months; PFS 75th percentile (95% CI) ([1]; 300 mg BID (RDE) n=18): 7.2 (3.7–25.8) months; PFS events: deaths ([1]; 300 mg BID (RDE) n=18): 1 (5.6) n (%); PFS events: progression ([1]; 300 mg BID (RDE) n=18): 17 (94.4) n (%); BOR: complete response (CR) ([1]; All BID n=30): 1 n (%) and 1 (3.3) n (%); BOR: partial response (PR) ([1]; All BID n=30): 3 n (%) and 3 (10.0) n (%); BOR: progressive disease (PD) ([1]; All BID n=30): 6 (20.0) n (%); BOR: unknown ([1]; All BID n=30): 2 (6.7) n (%); Kaplan–Meier PFS rate (95% CI) at 4 months ([1]; All BID n=30): 50.0 (31.3–66.1) %; Kaplan–Meier PFS rate (95% CI) at 6 months ([1]; All BID n=30): 33.3 (17.5–50.0) %; Kaplan–Meier PFS rate (95% CI) at 12 months ([1]; All BID n=30): 26.7 (12.6–43.0) %; Number of PFS events ([1]; All BID n=30): 30 (100) n (%); Overall response rate (ORR: CR + PR) ([1]; All BID n=30): 4 (13.3%) n (%) [95% CI]; PFS 25th percentile (95% CI) ([1]; All BID n=30): 1.9 (1.6–3.6) months; PFS 50th percentile, median PFS (95% CI) ([1]; All BID n=30): 4.1 (3.5–7.2) months; PFS 75th percentile (95% CI) ([1]; All BID n=30): 12.9 (5.4–25.8) months; PFS events: deaths ([1]; All BID n=30): 2 (6.7) n (%); PFS events: progression ([1]; All BID n=30): 28 (93.3) n (%); BOR: complete response (CR) ([1]; All QD n=38): 0 n (%); BOR: partial response (PR) ([1]; All QD n=38): 2 n (%) and 2 (5.3) n (%); BOR: progressive disease (PD) ([1]; All QD n=38): 9 (23.7) n (%); BOR: unknown ([1]; All QD n=38): 0 n (%); Kaplan–Meier PFS rate (95% CI) at 4 months ([1]; All QD n=38): 36.8 (22.0–51.8) %; Kaplan–Meier PFS rate (95% CI) at 6 months ([1]; All QD n=38): 26.3 (13.7–40.8) %; Kaplan–Meier PFS rate (95% CI) at 12 months ([1]; All QD n=38): 0.0 (NE–NE) %; Number of PFS events ([1]; All QD n=38): 38 (100.0) n (%); PFS 25th percentile (95% CI) ([1]; All QD n=38): 3.4 (1.7–3.5) months; PFS 50th percentile, median PFS (95% CI) ([1]; All QD n=38): 3.5 (3.5–5.4) months; PFS 75th percentile (95% CI) ([1]; All QD n=38): 6.0 (3.6–7.3) months; PFS events: deaths ([1]; All QD n=38): 0 (0.0) n (%); PFS events: progression ([1]; All QD n=38): 38 (100.0) n (%); BOR: complete response (CR) ([1]; All patients N=68): 1 (1.5) n (%); BOR: partial response (PR) ([1]; All patients N=68): 5 n (%) and 5 (7.4) n (%); BOR: progressive disease (PD) ([1]; All patients N=68): 15 (22.1) n (%); BOR: unknown ([1]; All patients N=68): 2 (2.9) n (%); Kaplan–Meier PFS rate (95% CI) at 4 months ([1]; All patients N=68): 42.6 (30.8–54.0) %; Kaplan–Meier PFS rate (95% CI) at 6 months ([1]; All patients N=68): 29.4%; Kaplan–Meier PFS rate (95% CI) at 12 months ([1]; All patients N=68): 11.8 (5.5–20.6) %; Number of PFS events ([1]; All patients N=68): 68 (100) n (%); Overall response rate (ORR: CR + PR) ([1]; All patients N=68): 8.8 n (%) [95% CI]; PFS 25th percentile (95% CI) ([1]; All patients N=68): 2.0 (1.7–3.5) months; PFS 50th percentile, median PFS (95% CI) ([1]; All patients N=68): 3.6 (3.5–5.4) months; PFS 75th percentile (95% CI) ([1]; All patients N=68): 7.2 (5.4–9.4) months; PFS events: deaths ([1]; All patients N=68): 2 n (%) and 2 (2.9) n (%); PFS events: progression ([1]; All patients N=68): 66 n (%) and 66 (97.1) n (%); Stable disease (SD) in evaluable patients ([1]; RECIST v1.1, all doses): 45/66; Median duration of SD ([1]; n=45, range 2.07–30.23): 5.32 months; Median duration of response ([1]; patients with RECIST response n=6, range 2.99–41.95): 10.15 months and 10 months; Cellular activity [2]: no activity observed
